Experiment [1] deals with dynein 1 construct with a mutation in the AAA3 domain (Walker A residue). In words: ATPase activity of dynein 1 construct with AAA3 mutation. In kind it is biochemical. An excerpt:
ATPase activity at AAA1 is linked to individual steps of the motor, while the AAA3 site plays a regulatory role. Two lines of evidence indicate that compounds of the invention target the AAA1 site specifically. First, compound 5 inhibits the activity of a dynein 1 construct with a mutation in the AAA3 domain (Walker A residue). In this construct, the ATPase activity is expected to be mainly due to the AAA1 site. Second, the potency of inhibition of the AAA3 mutant is similar to that of the microtubule-stimulated ATPase rate. Sequence comparisons indicate that the AAA1 sites in dynein 1 and 2 are highly conserved, while the other AAA sites are less conserved. In fact, the residues within 4 Å of the bound nucleotide in AAA1 are identical between dynein 1 and 2.

Another experiment has as its target human dynein 1 (Homo sapiens (Human), UniProt Q14204). In words: microtubule gliding assay with GFP-dynein 1. As to conditions: washout. The experiment is classed as biochemical. The text has this: To examine the inhibition of dynein 1 by compound 5 in vitro we generated recombinant human protein. We expressed and purified a GFP-tagged human dynein 1 (AA 1320-'16'16) construct similar to the one we used for GFP dynein 2. […] GFP-dynein 1 moves microtubules at 510±60 nm/s, a velocity expected based on studies of other mammalian dynein 1 homologs (n=7).
Microtubule surface gliding assay. Cytoplasmic dynein was purified from bovine brains as described by Bingham et al. [Methods Enzymol. 298, 171 (1998)]. K560, a 560-amino acid N-terminal fragment of human conventional kinesin (kinesin-1) with a C-terminal His-tag, was expressed in bacteria and purifed as described by Woehlke et al., [Cell 90, 207 (1997)]. Motility assays were performed on a Zeiss Axiovert 200M wide-field microscope equipped with a Zeiss 100×/1.45 NA α-Plan-Fluar objective. Data were captured with an EM-CCD camera (iXon DU-897, Andor Technology) with a 0.3-second exposure time and frame rate of 0.5 second^−1. […] After allowing the microtubules to bind to the surface for 5 minutes, the gliding microtubules were visualized by time-lapse fluorescence microscopy. Velocities were measured by kymography using Metamorph software (Molecular Devices), and the velocity for each microtubule was determined from the total distance during the time observed. […]

The target in experiment [2] is human cytoplasmic dynein 2 (Homo sapiens (Human), UniProt Q8NCM8). In words: microtubule gliding assay with GFP-dynein 2. In kind it is biochemical. As to the method: Compounds were tested employing a microtubule gliding assay, a standard biochemical assay for motor proteins. […] We purified an N-terminally GFP-tagged motor-domain construct of dynein 2 using an insect cell expression system [Schmidt et al., Nature. 2015; 518(7539):435-8]. The GFP tag in this construct allowed immobilization on passivated glass coverslips used in microtubule gliding assays. GFP-dynein 2, in the presence of ATP (1 mM), moved microtubules with a velocity of 128±14 nm/s. The mean velocity of dynein 2-driven microtubule gliding in the presence of control solvent (2% DMSO) and test compounds at 20 pM were compared. All motility assays were run at 1 mM MgATP, 0.05 mg/mL casein, and 2% DMSO. Representative examples of compounds of the invention provided the results shown as “Gliding velocity in nm/s” in Table 1. For some compounds, dose-dependent analyses were performed, and the results are shown as “IC50 in μM” in Table 1.
Microtubule surface gliding assay. Cytoplasmic dynein was purified from bovine brains as described by Bingham et al. [Methods Enzymol. 298, 171 (1998)]. K560, a 560-amino acid N-terminal fragment of human conventional kinesin (kinesin-1) with a C-terminal His-tag, was expressed in bacteria and purifed as described by Woehlke et al., [Cell 90, 207 (1997)]. Motility assays were performed on a Zeiss Axiovert 200M wide-field microscope equipped with a Zeiss 100×/1.45 NA α-Plan-Fluar objective. Data were captured with an EM-CCD camera (iXon DU-897, Andor Technology) with a 0.3-second exposure time and frame rate of 0.5 second^−1. Microtubule gliding assays were performed as described by Kapoor and Mitchison [Proc. Natl. Acad. Sci. U.S.A 96, 9106 (1999)] with some modifications. An approximately 6-μL flow chamber was filled with motor protein (100 μg/mL dynein or 50 μg/mL K560) in motor dilution buffer (80 mM Pipes, 1 mM EGTA, 2 mM MgCl2, 2 mM DTT, 50 μM ATP, pH 6.8 with KOH). After a 2-minute incubation, excess protein was washed out with 20 μL of PEM80 buffer (80 mM Pipes, 1 mM EGTA, 2 mM MgCl2, pH 6.8 with KOH) and the surface was blocked against non-specific microtubule binding by filling the chamber with blocking protein (0.5 mg/mL α-casein for dynein experiments and 1 mg/mL BSA for K560 experiments) in motor dilution buffer. After 2 minutes the chamber was perfused with 18 μL of reaction mix (PEM80, 40 mM KC 1, blocking protein [1 mg/mL α-casein for dynein experiments; 1 mg/mL BSA for K560 experiments], 2 mM MgATP, 20 μM taxol, 0.1 μM rhodamine-labeled microtubules, oxygen depletion system [4 mM DTT, 2 mM glucose, 40 μg/mL glucose oxidase, 35 μg/mL catalase], 2.5% DMSO, and test compounds as appropriate). The flow chamber was then sealed with valap. After allowing the microtubules to bind to the surface for 5 minutes, the gliding microtubules were visualized by time-lapse fluorescence microscopy. Velocities were measured by kymography using Metamorph software (Molecular Devices), and the velocity for each microtubule was determined from the total distance during the time observed.
For washout experiments, the chamber was left unsealed after the initial reaction mix containing inhibitor was added. Microtubules were allowed to bind to the surface for 5 minutes, and then a time-lapse movie was acquired. The inhibitor was then washed out of the chamber by flowing in 20 μL of fresh reaction mix (PEM80, 40 mM KCl, 1 mg/mL α-casein, 2 mM MgATP, 20 μM taxol, oxygen depletion system, and 2.5% DMSO) without additional microtubules or inhibitor. The chamber was sealed, and additional time-lapse movies were acquired.

Experiment [3] concerns Hedgehog pathway activity. In words: Shh-Light luciferase reporter assay of Hedgehog pathway activity (Shh-Light2 cells, SAG-stimulated). The experiment is classed as cell-based. In a few lines:
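NIH-3T3 cells stably carrying a Gli-site luciferase reporter (Shh-Light2) were switched to DMEM + 0.5% BCS with SAG (500 nM) and compound (three-fold dilutions from 20 μM; 0.2% DMSO control). After 28-32 hr of treatment, cells were lysed and firefly luciferase luminescence was read.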

Structures are written as SMILES. Where two headings read alike, the source gives them in different places.

By IC50 is commonly meant the midpoint of a concentration-inhibition curve.

Chain of human cytoplasmic dynein 2 (Q8NCM8 1091-4307 limits assumed): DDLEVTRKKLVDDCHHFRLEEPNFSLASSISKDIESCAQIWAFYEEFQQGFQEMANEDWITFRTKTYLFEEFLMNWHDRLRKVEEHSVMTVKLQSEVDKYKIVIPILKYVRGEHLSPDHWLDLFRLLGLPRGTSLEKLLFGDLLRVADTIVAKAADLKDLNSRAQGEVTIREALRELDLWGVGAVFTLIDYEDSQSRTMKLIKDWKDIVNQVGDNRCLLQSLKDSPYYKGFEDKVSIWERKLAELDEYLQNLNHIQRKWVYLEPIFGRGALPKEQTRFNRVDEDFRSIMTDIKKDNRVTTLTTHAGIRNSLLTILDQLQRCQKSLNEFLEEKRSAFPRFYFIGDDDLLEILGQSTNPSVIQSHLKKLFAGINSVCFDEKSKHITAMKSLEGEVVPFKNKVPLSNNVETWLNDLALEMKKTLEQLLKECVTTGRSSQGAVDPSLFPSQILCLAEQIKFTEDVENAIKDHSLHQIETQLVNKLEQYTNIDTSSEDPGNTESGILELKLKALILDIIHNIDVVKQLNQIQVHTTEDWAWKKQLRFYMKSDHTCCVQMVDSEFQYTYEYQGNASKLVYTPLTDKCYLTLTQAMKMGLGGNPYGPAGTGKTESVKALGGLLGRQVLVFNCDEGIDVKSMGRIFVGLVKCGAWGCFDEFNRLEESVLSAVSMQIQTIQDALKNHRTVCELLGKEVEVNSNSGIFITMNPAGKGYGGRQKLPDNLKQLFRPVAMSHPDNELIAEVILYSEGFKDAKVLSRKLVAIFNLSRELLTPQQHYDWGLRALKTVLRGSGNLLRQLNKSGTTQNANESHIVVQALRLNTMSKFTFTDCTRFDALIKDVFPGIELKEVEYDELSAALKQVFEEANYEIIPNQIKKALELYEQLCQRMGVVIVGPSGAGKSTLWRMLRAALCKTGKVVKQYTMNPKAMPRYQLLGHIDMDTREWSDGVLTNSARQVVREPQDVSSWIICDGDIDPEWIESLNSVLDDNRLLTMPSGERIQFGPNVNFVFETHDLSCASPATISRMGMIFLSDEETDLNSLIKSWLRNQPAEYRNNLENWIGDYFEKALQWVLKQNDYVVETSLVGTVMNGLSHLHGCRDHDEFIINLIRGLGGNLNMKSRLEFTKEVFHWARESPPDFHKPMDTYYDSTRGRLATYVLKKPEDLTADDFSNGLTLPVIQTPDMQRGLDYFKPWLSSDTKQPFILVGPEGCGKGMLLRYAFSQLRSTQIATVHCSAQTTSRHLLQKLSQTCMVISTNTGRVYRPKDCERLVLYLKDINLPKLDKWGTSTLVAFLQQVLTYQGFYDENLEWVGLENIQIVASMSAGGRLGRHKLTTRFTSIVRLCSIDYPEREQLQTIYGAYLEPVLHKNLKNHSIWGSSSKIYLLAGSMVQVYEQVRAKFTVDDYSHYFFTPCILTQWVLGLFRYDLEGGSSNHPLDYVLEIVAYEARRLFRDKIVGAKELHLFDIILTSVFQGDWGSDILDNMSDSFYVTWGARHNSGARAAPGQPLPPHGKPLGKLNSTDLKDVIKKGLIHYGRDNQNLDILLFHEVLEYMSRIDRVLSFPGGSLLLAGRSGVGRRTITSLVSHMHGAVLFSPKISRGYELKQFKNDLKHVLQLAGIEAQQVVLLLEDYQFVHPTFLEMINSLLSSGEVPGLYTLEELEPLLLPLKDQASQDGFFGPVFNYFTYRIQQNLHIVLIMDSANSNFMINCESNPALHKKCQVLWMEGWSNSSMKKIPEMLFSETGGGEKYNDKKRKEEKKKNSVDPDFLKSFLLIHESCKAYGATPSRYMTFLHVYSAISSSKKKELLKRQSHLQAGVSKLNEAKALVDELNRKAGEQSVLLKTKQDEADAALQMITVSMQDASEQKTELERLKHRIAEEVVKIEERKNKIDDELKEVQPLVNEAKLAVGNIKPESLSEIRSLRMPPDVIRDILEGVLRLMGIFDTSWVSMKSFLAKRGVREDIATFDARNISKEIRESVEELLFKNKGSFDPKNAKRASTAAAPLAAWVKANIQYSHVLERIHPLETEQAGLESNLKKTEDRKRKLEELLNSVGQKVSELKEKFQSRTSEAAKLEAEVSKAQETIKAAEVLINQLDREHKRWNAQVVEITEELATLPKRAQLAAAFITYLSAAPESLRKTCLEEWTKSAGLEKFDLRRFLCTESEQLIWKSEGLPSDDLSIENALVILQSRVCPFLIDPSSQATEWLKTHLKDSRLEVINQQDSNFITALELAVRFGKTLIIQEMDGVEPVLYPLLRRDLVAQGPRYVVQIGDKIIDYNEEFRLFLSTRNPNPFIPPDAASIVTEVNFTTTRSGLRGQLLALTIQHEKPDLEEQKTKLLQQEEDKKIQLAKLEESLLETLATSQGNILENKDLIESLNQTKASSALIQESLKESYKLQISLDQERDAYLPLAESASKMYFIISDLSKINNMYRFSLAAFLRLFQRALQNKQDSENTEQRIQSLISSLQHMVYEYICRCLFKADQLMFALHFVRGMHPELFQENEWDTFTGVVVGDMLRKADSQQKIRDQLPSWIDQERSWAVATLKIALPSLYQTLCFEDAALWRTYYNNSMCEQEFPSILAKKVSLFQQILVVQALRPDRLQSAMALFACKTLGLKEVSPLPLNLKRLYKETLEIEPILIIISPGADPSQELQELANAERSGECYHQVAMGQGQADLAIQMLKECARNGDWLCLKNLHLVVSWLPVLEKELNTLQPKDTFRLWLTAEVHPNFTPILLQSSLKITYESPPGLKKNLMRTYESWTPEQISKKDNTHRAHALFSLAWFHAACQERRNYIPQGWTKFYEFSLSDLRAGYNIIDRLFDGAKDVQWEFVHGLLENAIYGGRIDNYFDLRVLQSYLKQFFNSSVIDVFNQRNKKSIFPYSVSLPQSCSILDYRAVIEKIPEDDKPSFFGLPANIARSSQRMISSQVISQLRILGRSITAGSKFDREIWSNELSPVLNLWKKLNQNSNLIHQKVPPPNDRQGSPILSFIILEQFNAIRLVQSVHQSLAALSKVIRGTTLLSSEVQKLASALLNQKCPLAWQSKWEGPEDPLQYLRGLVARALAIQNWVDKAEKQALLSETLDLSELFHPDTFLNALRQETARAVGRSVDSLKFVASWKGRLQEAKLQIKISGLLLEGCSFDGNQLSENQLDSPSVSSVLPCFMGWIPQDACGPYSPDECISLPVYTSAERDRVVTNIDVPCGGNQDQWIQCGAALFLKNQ

`N#Cc1c(C2(c3ccc(Cl)cc3)CC2)nn2c1[nH]c(=O)c1cc(I)ccc12` [Example 5, 2-[1-(4-chlorophenyl)cyclopropyl]-7-iodo-5-oxo-4H-pyrazolo[1,5-a]quinazoline-3-carbonitrile]: the “inhibition of ATPase activity of AAA3 mutant dynein 1” value in experiment [1] is “inhibits”. The “reversibility of inhibition of dynein 1-dependent microtubule gliding” value on human dynein 1 was “reversed following washout”. Besides, the concentration for half-maximal inhibition (IC50) in experiment [2] (Table 1, dose-dependent analysis of dynein 2-driven microtubule gliding, 1 mM MgATP) is 2600 ± 1300 nM; in experiment [3] (SAG 500 nM, read-out: IC50, luciferase expression driven by Hedgehog pathway activity), 900 ± 500 nM; in experiment [3] (Table 2, SAG 500 nM, 28-32 hr treatment, read-out: Shh-light IC50), 1450 nM. For the same molecule, the Gliding velocity in experiment [2] (dynein 2-driven microtubule gliding, test compounds at 20 pM (so in the source), 1 mM MgATP, 0.05 mg/mL casein, 2% DMSO, solvent control 126 ± 17) is listed as 6 ± 2 nm/s. For the same molecule, in experiment [2] (washout), the “reversibility of inhibition of dynein 2-dependent motility” value was “reversed following washout”. For the same molecule, the activity at 2 µM in experiment [3] (2 μM compound, SAG 500 nM, read-out: SHH-light % residual @ 2 μM) was 24.8%. The activity at 20 µM in experiment [3] (20 μM compound, SAG 500 nM, read-out: SHH-light % residual @ 20 μM) was -5.2%.

For the origin of these results see patent publication US11192893B2, “Pyrazoloquinazolinone antitumor agents” (The Rockefeller University, priority 2017, dated 2021).
